Source: patent publication US5847092A (Zambon Group S.p.A., priority 1994, dated 1998)
In brackets after ≈: the same amount, converted by molar mass. Where two headings read alike, the source gives them in different places.

How the values were obtained:
[1] = literature; cited from earlier work
[2] = literature; cited from earlier work; remark: listed apart in the source
[3] = test system: Gram-positive and Gram-negative bacteria; settings: literature; cited from earlier work
[4] = test system: Enterococcus faecalis ATCC 29212; assay: In vitro antibacterial activity, MIC, broth microdilution; type: cell-based; settings: Enterococcus faecalis, ATCC29212; E. faecalis ATCC 29212; MHB; 37° C., 18 hours; read-out: minimum inhibiting concentration MIC
Method in brief: (§1)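 MIC values, in μg/ml, correspond to the lowest antibiotic concentration preventing bacterial development after 18 hours at 37 °C. Testing used graded twofold broth dilution in Mueller Hinton Broth, with 5% horse serum added for Streptococcus pneumoniae and Streptococcus pyogenes.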

[5] = test system: Escherichia coli ATCC 25922; assay: as above; type: cell-based; settings: Escherichia coli, ATCC25922; E. coli ATCC 25922; MHB; 37° C., 18 hours; read-out: minimum inhibiting concentration MIC
Method in brief: as §1

[6] = test system: Klebsiella pneumoniae ZC 2; assay: as above; type: cell-based; settings: Klebsiella pneumoniae, ZC2; K. pneumoniae ZC 2; MHB; 37° C., 18 hours; read-out: minimum inhibiting concentration MIC
Method in brief: as §1

[7] = test system: Staphylococcus aureus PV 14; assay: as above; type: cell-based; settings: Staphylococcus aureus, PV14; S. aureus PV 14; MHB; 37° C., 18 hours; read-out: minimum inhibiting concentration MIC
Method in brief: as §1

[8] = test system: Streptococcus pneumoniae BS 3; assay: as above; type: cell-based; settings: Streptococcus pneumoniae, BS3; S. pneumoniae BS 3; MHB + 5% horse serum; 37° C., 18 hours; read-out: minimum inhibiting concentration MIC
Method in brief: as §1

[9] = test system: Streptococcus pneumoniae BS 4; assay: as above; type: cell-based; settings: Streptococcus pneumoniae, BS4; S. pneumoniae BS 4; MHB + 5% horse serum; 37° C., 18 hours; read-out: minimum inhibiting concentration MIC
Method in brief: as §1

[10] = test system: Streptococcus pyogenes A 26; assay: as above; type: cell-based; settings: Streptococcus pyogenes, A26; S. pyogenes A 26; MHB + 5% horse serum; 37° C., 18 hours; read-out: minimum inhibiting concentration MIC
Method in brief: as §1

[11] = test system: Streptococcus pyogenes C 203; assay: as above; type: cell-based; settings: Streptococcus pyogenes, C203; S. pyogenes C 203; MHB + 5% horse serum; 37° C., 18 hours; read-out: minimum inhibiting concentration MIC
Method in brief: as §1

[12] = test system: Streptococcus pyogenes C 203; assay: In vivo antibacterial activity, experimental pulmonary infection in mouse; settings: for ED50: Streptococcus pyogenes, C203, ip, 240 h, intraperitoneal single dose, read-out: average protecting dose PD50
Procedure: The in vivo antibacterial activity of the compounds of formula (I), expressed as average protecting dose PD50 (mg/Kg), was evaluated by means of experimental pulmonary infection induced in mouse by Streptococcus pyogenes (example 23).
b) In vivo antibacterial activity
The therapeutical effectiveness, expressed as average protecting dose (PD50), of the considered compounds of formula (I) was evaluated by experimental pulmonary infection induced in mouse by Streptococcus pyogenesC 203.
Charles River albin mice (strain CD 1), of body weight comprised between 23-35 g, stabulated in groups of 6 for cage and normo-feeded with standard diet and water ad libitum were used. A suspension of S. pyogenes C 203 (corresponding about to 10^8 UFC) in tryptose broth (0.05 ml) was intranasally administered to each mouse anesthesized with a mixture of ethyl ether and chloroform.
The compounds under examination were intraperitoneally administered as a single dose, in 0.2% Tween suspension, 24 hours before or 1 hour after the infection.
Mice mortality observation was prolonged up to 10 days from the infection.
PD50 calculation, expressed as (mg/Kg), was carried out through the analysis of probit.
In vivo antibacterial activity, expressed as average protecting dose PD50 (mg/Kg), 24 hours before and 1 hour after the experimental pulmonary infection induced in mouse by Streptococcus pyogenes C 203, of the compounds 4, 10, 16-19, 21, 23, 26-27, 29-30, 33-35 and 38 and of the reference compounds Roxithromycin and Clarithromycin.

eukaryotic parasites = settings: literature; cited from earlier work

SMILES | stability to the acids (in words) [1] | pharmacokinetic properties / bioavailability (in words) [2] | spectrum of activity in vitro (in words) [3] | MIC [4] [µg/mL] | MIC [5] [µg/mL] | MIC [6] [µg/mL] | MIC [7] [µg/mL] | MIC [8] [µg/mL] | MIC [9] [µg/mL] | MIC [10] [µg/mL] | MIC [11] [µg/mL] | ED50 ([12]; 1 hour after infection) [mg/kg] | ED50 ([12]; 24 hours before infection) [mg/kg] | in vivo activity, pulmonary infection (in words) ([12]; administered 24 hours before the infection) | activity against eukaryotic parasites (in words) (eukaryotic parasites)
CC[C@H]1OC(=O)[C@H](C)[C@@H](O[C@H]2C[C@@](C)(OC)[C@@H](O)[C@H](C)O2)[C@H](C)[C@@H](O[C@@H]2O[C@H](C)C[C@H](N(C)C)[C@H]2O)[C@](C)(O)C[C@@H](C)C(=NOCCN(CC)CC)[C@H](C)[C@@H](O)[C@]1(C)O [Erythromycin A 9-[0-[(2-diethylamino)ethyl]oxime]] | superior stability to the acids | better pharmacokinetic properties | comparable to that of Erythromycin A |  |  |  |  |  |  |  |  |  |  |  | 
CC[C@H]1OC(=O)[C@H](C)[C@@H](O[C@H]2C[C@@](C)(OC)[C@@H](O)[C@H](C)O2)[C@H](C)[C@@H](O[C@@H]2O[C@H](C)C[C@H](N(C)C)[C@H]2O)[C@](C)(O)C[C@@H](C)/C(=N\OCOCCOC)[C@H](C)[C@@H](O)[C@]1(C)O [Roxithromycin, Erythromycin A 9-[0-[(2-methoxyethoxy)methyl]oxime], reference compound] | superior stability to the acids | better pharmacokinetic properties | comparable to that of Erythromycin A | 4 (≈ 4.78 µM) | 28 (≈ 33.5 µM) | 256 (≈ 306 µM) | 1 (≈ 1.19 µM) | 0.0312 | 0.0625 | 0.0625 | 0.0625 | 0.9 | > 25 | inactive | 
CCCCOc1ccc(CNCCCCCCNCCO/N=C2\[C@H](C)C[C@@](C)(O)[C@H](O[C@@H]3O[C@H](C)C[C@H](N(C)C)[C@H]3O)[C@@H](C)[C@H](O[C@H]3C[C@@](C)(OC)[C@@H](O)[C@H](C)O3)[C@@H](C)C(=O)O[C@H](CC)[C@@](C)(O)[C@H](O)[C@H]2C)cc1 [Compound 26, Erythromycin A (E)-9-[0-[2-[6-[(4-n.butoxyphenyl)methylamino]hexylamino]ethyl]oxime]] |  |  |  | 1 (≈ 0.949 µM) | 1 (≈ 0.949 µM) | 2 (≈ 1.9 µM) | 0.25 (≈ 0.237 µM) | 0.0156 | 0.0156 | 0.0312 | 0.0078 | 6.11 | 6.11 |  | 
CC[C@H]1OC(=O)[C@H](C)[C@@H](O[C@H]2C[C@@](C)(OC)[C@@H](O)[C@H](C)O2)[C@H](C)[C@@H](O[C@@H]2O[C@H](C)C[C@H](N(C)C)[C@H]2O)[C@](C)(O)C[C@@H](C)C(=O)[C@H](C)[C@@H](O)[C@]1(C)O [Erythromycin A] |  |  | antibacterial activity mainly against Gram-positive microorganisms |  |  |  |  |  |  |  |  |  |  |  | active against eukaryotic parasites
CC[C@H]1OC(=O)[C@H](C)[C@@H](O[C@H]2C[C@@](C)(OC)[C@@H](O)[C@H](C)O2)[C@H](C)[C@@H](O[C@@H]2O[C@H](C)C[C@H](N(C)C)[C@H]2O)[C@](C)(O)C[C@@H](C)/C(=N\OCCNCCCCCCNCc2ccccc2[N+](=O)[O-])[C@H](C)[C@@H](O)[C@]1(C)O [Compound 33, Erythromycin A (E)-9-[0-[2-[6-[(2-nitrophenyl)methylamino]hexylamino]ethyl]oxime]] |  |  |  | 2 (≈ 1.95 µM) | 4 (≈ 3.9 µM) | 16 (≈ 15.6 µM) | 0.5 (≈ 0.487 µM) | 0.0039 | 0.0039 | 0.0039 | 0.00097 | 1.61 | 6.11 |  | 
CC[C@H]1OC(=O)[C@H](C)[C@@H](O[C@H]2C[C@@](C)(OC)[C@@H](O)[C@H](C)O2)[C@H](C)[C@@H](O[C@@H]2O[C@H](C)C[C@H](N(C)C)[C@H]2O)[C@](C)(O)C[C@@H](C)/C(=N\OCCNCCCCCCNCc2ccc([N+](=O)[O-])cc2)[C@H](C)[C@@H](O)[C@]1(C)O [Compound 35] |  |  |  | 0.5 (≈ 0.487 µM) | 1 (≈ 0.974 µM) | 4 (≈ 3.9 µM) | 0.25 (≈ 0.244 µM) | 0.0039 | 0.0039 | 0.0078 | 0.0019 | 3 | 6 |  | 
CC[C@H]1OC(=O)[C@H](C)[C@@H](O[C@H]2C[C@@](C)(OC)[C@@H](O)[C@H](C)O2)[C@H](C)[C@@H](O[C@@H]2O[C@H](C)C[C@H](N(C)C)[C@H]2O)[C@](C)(O)C[C@@H](C)/C(=N\OCCNCCCCCCNCc2ccccc2C(F)(F)F)[C@H](C)[C@@H](O)[C@]1(C)O [Compound 21, Erythromycin A (E)-9-[0-[2-[6-[(2-trifluoromethylphenyl)methylamino]hexylamino]ethyl]oxime]] |  |  |  | 2 (≈ 1.91 µM) | 4 (≈ 3.81 µM) | 16 (≈ 15.2 µM) | 1 (≈ 0.953 µM) | 0.0078 | 0.0039 | 0.0078 | 0.0156 | 0.82 | 5.95 |  | 
CC[C@H]1OC(=O)[C@H](C)[C@@H](O[C@H]2C[C@@](C)(OC)[C@@H](O)[C@H](C)O2)[C@H](C)[C@@H](O[C@@H]2O[C@H](C)C[C@H](N(C)C)[C@H]2O)[C@](C)(O)C[C@@H](C)/C(=N\OCCN(C)CCCCCCN(C)Cc2ccccc2)[C@H](C)[C@@H](O)[C@]1(C)O [Compound 38, Erythromycin A (E)-9-[0-[2-[N-methyl-6-(N'-methyl-N'-phenylmethylamino)hexylamino]ethyl]oxime]] |  |  |  | 8 (≈ 7.93 µM) | 8 (≈ 7.93 µM) | 32 (≈ 31.7 µM) | 0.5 (≈ 0.495 µM) | 0.0078 | 0.0039 | 0.0156 | 0.0078 | 11.8 | 11.8 |  | 
CC[C@H]1OC(=O)[C@H](C)[C@@H](O[C@H]2C[C@@](C)(OC)[C@@H](O)[C@H](C)O2)[C@H](C)[C@@H](O[C@@H]2O[C@H](C)C[C@H](N(C)C)[C@H]2O)[C@](C)(O)C[C@@H](C)C(=NOCCN(C)C)[C@H](C)[C@@H](O)[C@]1(C)O [Erythromycin A 9-[0-[(2-dimethylamino)ethyl]oxime]] | superior stability to the acids | better pharmacokinetic properties | comparable to that of Erythromycin A |  |  |  |  |  |  |  |  |  |  |  | 
